In brackets after ≈: the same amount, converted by molar mass. Several values for one entry are separate records, joined by “and”; a condition that tells them apart may be missing. Equal values may be shown once. Read-outs that look alike come from different tables or passages of the source.
How the values were obtained:
MRSA = experiment: Resistance development by serial passaging at 0.5× MIC; format: cell-based, S. aureus
Experimental: (§1) The non-specific action of membrane-active antibiotics lends itself to minimal development of resistance development due to the large metabolic burden involved, unlike traditional antibiotics with a well-defined enzymatic target. Based on this premise, we passaged bacteria incubated with DM6P, or ciprofloxacin (control), at 0.5× MIC to investigate the adaptation of bacteria towards external antibiotic stress. As a control, treatment of MRSA with ciprofloxacin gave rise to antibiotic-resistant mutants within 4 passages, see FIG. 4a. […] Combined with its broad spectrum of activity, this feature opens opportunities for the use of COE antimicrobial agents to address polymicrobial infections with a lower rate of emerging antibiotic resistance.

P. aeruginosa = experiment: as above; format: cell-based
Experimental: as §1

[1] = test system: A549 (lung epithelial cells); experiment: Cytotoxicity against mammalian cell line; format: cell-based
Experimental: The cytotoxicity of the TPP COEs was also tested against a mammalian cell line (A549).

[2] = test system: M. abscesses (ATCC 19977); experiment: MIC against mycobacterium in Middlebrook 7H9 broth; format: cell-based, M. abscessus; settings: for MIC: Mycobacteroides abscessus, ATCC19977
Experimental: We also examined non-tuberculous mycobacteria (NTM). These are opportunistic pathogens that are rising in clinical significance due to their increasing prevalence and treatment difficulty. The membrane of Mycobacterium is inherently a greater antibiotic permeability barrier due to its high lipid content relative to other pathogens and long-tailed mycolic acids that contributed to its high lipophilic character. The antimicrobial activity of the TPP analogues were also evaluated against Mycobacterium in Middlebrook 7H9 broth.

[3] = test system: P. aeruginosa (ATCC47085); experiment: MIC, broth microdilution in CA-MHB; format: cell-based; settings: CA-MHB
Experimental: (§2) Antimicrobial activity was screened against a range of pathogens made up of clinically relevant ESKAPE pathogens by determination of the minimum inhibitory concentration (MIC) in cation-adjusted Mueller-Hinton broth (CA-MHB).
(§3) Minimum inhibitory concentrations of COEs were determined through a broth microdilution method in accordance with the Clinical and Laboratory Standards Institute (CLSI) guidelines M07-A10. A single bacterial colony was isolated from an overnight culture and grown to mid-log phase (OD600~0.8). Compounds were prepared as a stock solution in DMSO and diluted in a sterile flat-bottom 96-well plate in CA-MHB. Subsequent concentrations were prepared by two-fold dilution of the initial solution. An equivalent volume of bacteria was added to the compound to a final concentration of 5×10^5 cfu/mL. Plates were incubated at 37° C. for 16-18 hours, and read at OD600 using a microplate reader (TECAN Spark®). […] MIC values were determined for each compound in triplicate.

[4] = test system: E. faecalis OG1RF (ATCC 47077); experiment: MIC, broth microdilution in CA-MHB; format: cell-based; settings: CA-MHB
Experimental: as §2, §3

E. facium (ATCC 19434) = experiment: MIC, broth microdilution in CA-MHB; format: cell-based; settings: for MIC FAC: CA-MHB
Experimental: as §2, §3

A. baumanii (ATCC 17978) = experiment: MIC, broth microdilution in CA-MHB; format: cell-based; settings: for MIC AB: CA-MHB
Experimental: as §2, §3

[5] = test system: Methicillin-resistant S. aureus (ATCC BAA1717); experiment: MIC, broth microdilution in CA-MHB; format: cell-based; settings: for MIC MRSA: CA-MHB
Experimental: as §2, §3

S. aureus (ATCC 29213) = experiment: MIC, broth microdilution in CA-MHB; format: cell-based
Experimental: as §2, §3

[6] = test system: E. coli. K12 (ATCC 10798); experiment: MIC, broth microdilution in CA-MHB; format: cell-based; settings: for MIC EC: CA-MHB
Experimental: as §2, §3

[7] = test system: K. pneumoniae (carbapenem-resistant Enterobacterales) (ATCC BAA1705); experiment: MIC, broth microdilution in CA-MHB; format: cell-based; settings: CA-MHB
Experimental: as §2, §3

[8] = phosphate-buffered saline; below 10 μg mL^−1 estimated by turbidimetric screening
Experimental: The solubility of all the TPP derivatives was determined in phosphate-buffered saline (PBS) (Table S3).

SA = experiment: MIC in physiological-mimicking environments (MHB); format: cell-based, S. aureus
From the text: (§4) The complexities of the physiological environment often influence drug activity, particularly when cations in solution are implicated in their oligomerization-dependent mechanisms of action, such as for daptomycin. Binding of free drug to plasma proteins effectively reduces the available free concentration of the drug capable of killing bacteria, resulting in lower observable activity. We tested MIC values of DM4P and DM6P in the presence of human serum albumin (40 g L^−1) and high salt concentrations (Table 4). Under these conditions, the antimicrobial activity was minimally affected by these environmental factors, with MICs remaining within a 2-fold level.

PA = experiment: MIC in physiological-mimicking environments (MHB); format: cell-based, P. aeruginosa
From the text: as §4

Row | Compound | IC50 [1] [µg/mL] | MIC PA [3] [µg/mL] | MIC FAE [4] [µg/mL] | MIC FAC (E. facium (ATCC 19434)) [µg/mL] | MIC AB (A. baumanii (ATCC 17978)) [µg/mL] | MIC MRSA [5] [µg/mL] | MIC ([5]; towards MRSA, Table 3) [µg/mL] | MIC SA (S. aureus (ATCC 29213)) [µg/mL] | MIC EC [6] | MIC KP [7] [µg/mL] | solubility in PBS [8] [µg/mL] | other results
1 | O=C(O)c1cn(C2CC2)c2cc(N3CCNCC3)c(F)cc2c1=O [ciprofloxacin, reference compound] |  |  |  |  |  |  |  |  |  |  |  | passages until antibiotic-resistant mutants arise (MRSA): ≤ 4 passages; resistance development (P. aeruginosa): this development occurred at a slower rate
2 | C(=C\c1ccc(OCCCC[P+](c2ccccc2)(c2ccccc2)c2ccccc2)cc1)/c1ccc(OCCCC[P+](c2ccccc2)(c2ccccc2)c2ccccc2)cc1.[I-].[I-] [Compound D4P] | 8 | 16 | 1 | 1 | 32 | 2 | 2 | 4 | 4 µg/mL and 8 µg/mL | 32 | 76 | MIC M. abscesses [2]: 32 µg/mL
3 | COc1cc(/C=C/c2ccc(OCCCCCC[P+](CCCO)(CCCO)CCCO)c(OC)c2)ccc1OCCCCCC[P+](CCCO)(CCCO)CCCO.[I-].[I-] [DM6THPP] | >1024 | >64 | >64 | >64 | >64 | >64 | > 64 | >64 | >64 µg/mL | >64 |  | 
4 | COc1cc(/C=C/c2ccc(OCCCCCCCC[P+](c3ccccc3)(c3ccccc3)c3ccccc3)c(OC)c2)ccc1OCCCCCCCC[P+](c1ccccc1)(c1ccccc1)c1ccccc1.[I-].[I-] [DM8P] | 10 | >4 | 1 | 1 | >4 | 4 | 4 | >4 | >4 µg/mL | >4 | 4 | MIC M. abscesses [2]: 64 µg/mL
5 | COc1cc(/C=C/c2ccc(OCCCC[P+](c3ccccc3)(c3ccccc3)c3ccccc3)c(OC)c2)ccc1OCCCC[P+](c1ccccc1)(c1ccccc1)c1ccccc1.[I-].[I-] [DM4P] | 9 | 8 | 1 | 1 | 4 | 2 | 2 | 2 | 4 µg/mL | 8 | 138 | MIC CaCl2 (SA; CaCl2 1 mM): 2 µg/mL; MIC MgCl2 (SA; MgCl2 1.25mM): 2 µg/mL; MIC NaCl (SA; NaCl 300 mM): 4 µg/mL; MIC HSA (SA; human serum albumin 40 g L^−1): 2 µg/mL; MIC — (SA; no additive): 2 µg/mL; MIC CaCl2 (PA; CaCl2 1 mM): 8 µg/mL; MIC MgCl2 (PA; MgCl2 1.25mM): 8 µg/mL; MIC NaCl (PA; NaCl 300 mM): 4 µg/mL; MIC HSA (PA; human serum albumin 40 g L^−1): 8 µg/mL; MIC — (PA; no additive): 8 µg/mL; MIC M. abscesses [2]: 8 µg/mL
6 | C(=C\c1ccc(OCCCCCCCC[P+](c2ccccc2)(c2ccccc2)c2ccccc2)cc1)/c1ccc(OCCCCCCCC[P+](c2ccccc2)(c2ccccc2)c2ccccc2)cc1.[I-].[I-] [Compound D8P] |  |  |  |  |  |  |  |  |  |  | 4 | 
7 | C[N+](C)(C)CCCCCCCCOc1ccc(/C=C/c2ccc(OCCCCCCCC[N+](C)(C)C)cc2)cc1.[I-].[I-] [Compound D8, reference compound] | 11 | >64 | 4 | 1 | 32 | 8 | 8 | 8 | 4 µg/mL | 64 |  | 
8 | C[N+](C)(C)CCCCCCOc1ccc(/C=C/c2ccc(OCCCCCC[N+](C)(C)C)cc2)cc1.[I-].[I-] [Compound D6, reference compound] | 39 | >64 | 32 | 8 | >64 | 32 | 32 | 32 | 16 µg/mL | >64 |  | 
9 | C(=C\c1ccc(OCCCCCC[P+](c2ccccc2)(c2ccccc2)c2ccccc2)cc1)/c1ccc(OCCCCCC[P+](c2ccccc2)(c2ccccc2)c2ccccc2)cc1.[I-].[I-] [Compound D6P] | 13 | 8 | 1 | 1 | >16 | 2 | 2 | 2 | 2 µg/mL | >16 | 18 | MIC M. abscesses [2]: 16 µg/mL
10 | Polymyxin B [reference compound] |  | 2 |  |  | 4 |  |  |  | 1 µg/mL | 2 |  | 
11 | C[N+](C)(C)CCCCOc1ccc(/C=C/c2ccc(OCCCC[N+](C)(C)C)cc2)cc1.[I-].[I-] [Compound D4, reference compound] | 548 | >64 | 128 | 64 | >64 | >64 | > 64 | >64 | > 64 µg/mL and 128 µg/mL | >64 |  | 
12 | CN[C@H](CC(C)C)C(=O)N[C@H]1C(=O)N[C@@H](CC(N)=O)C(=O)N[C@H]2C(=O)N[C@H]3C(=O)N[C@H](C(=O)N[C@H](C(=O)O)c4cc(O)cc(O)c4-c4cc3ccc4O)[C@H](O)c3ccc(c(Cl)c3)Oc3cc2cc(c3O[C@@H]2O[C@H](CO)[C@@H](O)[C@H](O)[C@H]2O[C@H]2C[C@](C)(N)[C@H](O)[C@H](C)O2)Oc2ccc(cc2Cl)[C@H]1O [Vancomycin, reference compound] |  |  |  |  |  |  |  |  |  | >128 |  | MIC (E. facium (ATCC 19434); read-out: MIC FAC): 1 µg/mL (≈ 0.69 µM); MIC (A. baumanii (ATCC 17978); Acinetobacter baumannii, ATCC17978, read-out: MIC AB): > 128 µg/mL; MIC ([5]; Staphylococcus aureus, ATCC BAA-1717 / MRSA, read-out: MIC MRSA): 1 µg/mL (≈ 0.69 µM); MIC ([6]; Escherichia coli, ATCC10798, read-out: MIC EC): > 128 µg/mL
13 | NCC[C@H](O)C(=O)N[C@@H]1C[C@H](N)[C@@H](O[C@H]2O[C@H](CN)[C@@H](O)[C@H](O)[C@H]2O)[C@H](O)[C@H]1O[C@H]1O[C@H](CO)[C@@H](O)[C@H](N)[C@H]1O [Amikacin, reference compound] |  |  |  |  |  |  |  |  |  |  |  | MIC [2]: 8 µg/mL (≈ 13.7 µM)
14 | CC(=O)NC[C@H]1CN(c2ccc(N3CCOCC3)c(F)c2)C(=O)O1 [Linezolid, reference compound] |  |  |  |  |  |  |  |  |  |  |  | MIC [2]: 8 µg/mL (≈ 23.7 µM)
